# Assay results: US20080269241A1, “BICYCLIC AMINOPROPYL TETRAHYDRO-PYRAZOLO-PYRIDINE MODULATORS OF CATHEPSIN S” (priority 2007, published 2008)
# Biological target: T1, human cathepsin S (CatS) (Homo sapiens, UniProt P25774)
# T1 construct: made in house; host or cells: baculovirus system (insect cells)
# Experiment: Recombinant human cathepsin S (CatS) fluorogenic substrate inhibition assay
# Assay type: biochemical
# Details: not given
# Protocol: Recombinant human cathepsin S (CatS) was expressed in the baculovirus system and purified in one step with a thiopropyl-sepharose column. […] The assay is run in 150 mM sodium acetate pH 5.0 containing 1.5 mM DTT and 150 mM NaCl. […] Measurements are taken every min for 20 min. The rate is calculated from the slope of the increase in fluorescence and the percent inhibition is calculated from this.
# T1 sequence (P25774 115-331): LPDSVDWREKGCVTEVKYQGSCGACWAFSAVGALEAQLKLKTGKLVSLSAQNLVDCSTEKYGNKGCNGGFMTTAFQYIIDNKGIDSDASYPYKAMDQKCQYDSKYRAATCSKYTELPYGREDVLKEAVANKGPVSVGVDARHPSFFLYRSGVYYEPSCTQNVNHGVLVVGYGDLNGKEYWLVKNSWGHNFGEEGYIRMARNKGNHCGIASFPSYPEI
row,SMILES,IC50
1,"CN(C)C(=O)NCc1cc(-c2nn(CC(O)CN3CCC(n4c(=O)n(C)c5ccc(N(C)C)nc54)CC3)c3c2CN(S(C)(=O)=O)CC3)ccc1C(F)(F)F (centres unmarked) [Example 147, 2-Dimethylamino-N-[5-(1-{3-[4-(5-Dimethylamino-1-methyl-2-oxo-1,2-dihydro-imidazo[4,5-b]pyridin-3-yl)-piperidin-1-yl]-2-hydroxy-propyl}-5-methanesulfonyl-4,5,6,7-tetrahydro-1H-pyrazolo[4,3-c]pyridin-3-yl)-2-trifluoromethyl-benzyl]-1,1-dimethyl-urea]",140 nM

# Same assay, conditions: recombinant human CatS, 10 μM Z-Valine-Valine-Arginine-AMC, pH 5.0; average of results obtained; read-out: CatS IC50
row,SMILES,IC50
1,"CC(=O)Nc1cc(C(=O)NCc2cc(-c3nn(CC(O)CN4CCC(N5CCCC5=O)CC4)c4c3CN(S(C)(=O)=O)CC4)ccc2C(F)(F)F)ccn1 (centres unmarked) [Example 129, 2-Acetylamino-N-[5-(1-{2-hydroxy-3-[4-(2-oxo-pyrrolidin-1-yl)-piperidin-1-yl]-propyl}-5-methanesulfonyl-4,5,6,7-tetrahydro-1H-pyrazolo[4,3-c]pyridin-3-yl)-2-trifluoromethyl-benzyl]-isonicotinamide]",250 nM
2,"CS(=O)(=O)N1CCc2c(c(-c3ccc(C(F)(F)F)c(CNC(=O)C4CCCCCC4)c3)nn2CC(O)CN2CCC(N3CCCC3=O)CC2)C1 (centres unmarked) [Example 130, Cycloheptanecarboxylic acid 5-(1-{2-hydroxy-3-[4-(2-oxo-pyrrolidin-1-yl)-piperidin-1-yl]-propyl}-5-methanesulfonyl-4,5,6,7-tetrahydro-1H-pyrazolo[4,3-c]pyridin-3-yl)-2-trifluoromethyl-benzylamide]",270 nM
3,"CC(O)CC(=O)NCc1cc(-c2nn(CCCN3CCC(N4CCCC4=O)CC3)c3c2CN(S(C)(=O)=O)CC3)ccc1C(F)(F)F (centres unmarked) [Example 131, 3-Hydroxy-N-[5-(5-methanesulfonyl-1-{3-[4-(2-oxo-pyrrolidin-1-yl)-piperidin-1-yl]-propyl}-4,5,6,7-tetrahydro-1H-pyrazolo[4,3-c]pyridin-3-yl)-2-trifluoromethyl-benzyl]-butyramide]",270 nM
4,"Cn1cncc1C(=O)NCc1cc(-c2nn(CC(O)CN3CCC(N4CCCC4=O)CC3)c3c2CN(S(C)(=O)=O)CC3)ccc1C(F)(F)F (centres unmarked) [Example 133, 3-Methyl-3H-imidazole-4-carboxylic acid 5-(1-{2-hydroxy-3-[4-(2-oxo-pyrrolidin-1-yl)-piperidin-1-yl]-propyl}-5-methanesulfonyl-4,5,6,7-tetrahydro-1H-pyrazolo[4,3-c]pyridin-3-yl)-2-trifluoromethyl-benzylamide]",380 nM
5,"CS(=O)(=O)N1CCc2c(c(-c3ccc(C(F)(F)F)c(CNC(=O)c4cncs4)c3)nn2CC(O)CN2CCC(N3CCCC3=O)CC2)C1 (centres unmarked) [Example 134, Thiazole-5-carboxylic acid 5-(1-{2-hydroxy-3-[4-(2-oxo-pyrrolidin-1-yl)-piperidin-1-yl]-propyl}-5-methanesulfonyl-4,5,6,7-tetrahydro-1H-pyrazolo[4,3-c]pyridin-3-yl)-2-trifluoromethyl-benzylamide]",380 nM
6,"CC(=O)NCc1cc(-c2nn(CC(O)CN3CCC(n4c(=O)n(C)c5ccc(N(C)C)nc54)CC3)c3c2CN(S(C)(=O)=O)CC3)ccc1C(F)(F)F (centres unmarked) [Example 143, N-[5-(1-{3-[4-(5-Dimethylamino-1-methyl-2-oxo-1,2-dihydro-imidazo[4,5-b]pyridin-3-yl)-piperidin-1-yl]-2-hydroxy-propyl}-5-methanesulfonyl-4,5,6,7-tetrahydro-1H-pyrazolo[4,3-c]pyridin-3-yl)-2-trifluoromethyl-benzyl]-acetamide]",100 nM
7,"CS(=O)(=O)N1CCc2c(c(-c3ccc(C(F)(F)F)c(CNc4nc5ccccc5[nH]4)c3)nn2CC(O)CN2CCC(N3CCCC3=O)CC2)C1 (centres unmarked) [Example 175, 1-{1-[3-(3-{3-[(1H-Benzoimidazol-2-ylamino)-methyl]-4-trifluoromethyl-phenyl}-5-methanesulfonyl-4,5,6,7-tetrahydro-pyrazolo[4,3-c]pyridin-1-yl)-2-hydroxy-propyl]-piperidin-4-yl}-pyrrolidin-2-one]",4150 nM
8,"Cc1coc(NCc2cc(-c3nn(CCCN4CCC(N5CCCC5=O)CC4)c4c3CN(S(C)(=O)=O)CC4)ccc2C(F)(F)F)n1 [Example 177, 1-{1-[3-(5-Methanesulfonyl-3-{3-[(4-methyl-oxazol-2-ylamino)-methyl]-4-trifluoromethyl-phenyl}-4,5,6,7-tetrahydro-pyrazolo[4,3-c]pyridin-1-yl)-propyl]-piperidin-4-yl}-pyrrolidin-2-one]",1660 nM
9,"CS(=O)(=O)N1CCc2c(c(-c3ccc(C(F)(F)F)c(CNCCN4CCCCC4)c3)nn2CC(O)CN2CCC(N3CCCC3=O)CC2)C1 (centres unmarked) [Example 179, 1-{1-[2-Hydroxy-3-(5-methanesulfonyl-3-{3-[(2-piperidin-1-yl-ethylamino)-methyl]-4-trifluoromethyl-phenyl}-4,5,6,7-tetrahydro-pyrazolo[4,3-c]pyridin-1-yl)-propyl]-piperidin-4-yl}-pyrrolidin-2-one]",6250 nM

# Further lines, results first:
row,IC50,SMILES
1,340 nM,"CS(=O)(=O)N1CCc2c(c(-c3ccc(C(F)(F)F)c(CNC(=O)c4ccc(N5CCOCC5)nc4)c3)nn2CC(O)CN2CCC(N3CCCC3=O)CC2)C1 (centres unmarked) [Example 132, N-[5-(1-{2-Hydroxy-3-[4-(2-oxo-pyrrolidin-1-yl)-piperidin-1-yl]-propyl}-5-methanesulfonyl-4,5,6,7-tetrahydro-1H-pyrazolo[4,3-c]pyridin-3-yl)-2-trifluoromethyl-benzyl]-6-morpholin-4-yl-nicotinamide]"
2,410 nM,"CS(=O)(=O)N1CCc2c(c(-c3ccc(C(F)(F)F)c(CNC(=O)CN4CCCCC4)c3)nn2CCCN2CCC(N3CCCC3=O)CC2)C1 [Example 135, N-[5-(5-Methanesulfonyl-1-{3-[4-(2-oxo-pyrrolidin-1-yl)-piperidin-1-yl]-propyl}-4,5,6,7-tetrahydro-1H-pyrazolo[4,3-c]pyridin-3-yl)-2-trifluoromethyl-benzyl]-2-piperidin-1-yl-acetamide]"
3,410 nM,"Cc1csc(C(=O)NCc2cc(-c3nn(CC(O)CN4CCC(N5CCCC5=O)CC4)c4c3CN(S(C)(=O)=O)CC4)ccc2C(F)(F)F)c1Cl (centres unmarked) [Example 136, 3-Chloro-4-methyl-thiophene-2-carboxylic acid 5-(1-{2-hydroxy-3-[4-(2-oxo-pyrrolidin-1-yl)-piperidin-1-yl]-propyl}-5-methanesulfonyl-4,5,6,7-tetrahydro-1H-pyrazolo[4,3-c]pyridin-3-yl)-2-trifluoromethyl-benzylamide]"
4,410 nM,"Cc1ncsc1C(=O)NCc1cc(-c2nn(CC(O)CN3CCC(N4CCCC4=O)CC3)c3c2CN(S(C)(=O)=O)CC3)ccc1C(F)(F)F (centres unmarked) [Example 137, 4-Methyl-thiazole-5-carboxylic acid 5-(1-{2-hydroxy-3-[4-(2-oxo-pyrrolidin-1-yl)-piperidin-1-yl]-propyl}-5-methanesulfonyl-4,5,6,7-tetrahydro-1H-pyrazolo[4,3-c]pyridin-3-yl)-2-trifluoromethyl-benzylamide]"
5,430 nM,"CCSC(=O)NCc1cc(-c2nn(CCCN3CCC(N4CCCC4=O)CC3)c3c2CN(S(C)(=O)=O)CC3)ccc1C(F)(F)F [Example 138, [5-(5-Methanesulfonyl-1-{3-[4-(2-oxo-pyrrolidin-1-yl)-piperidin-1-yl]-propyl}-4,5,6,7-tetrahydro-1H-pyrazolo[4,3-c]pyridin-3-yl)-2-trifluoromethyl-benzyl]-thiocarbamic acid S-ethyl ester]"
6,490 nM,"CS(=O)(=O)N1CCc2c(c(-c3ccc(C(F)(F)F)c(CNC(=O)c4ccc5nccnc5c4)c3)nn2CC(O)CN2CCC(N3CCCC3=O)CC2)C1 (centres unmarked) [Example 139, Quinoxaline-6-carboxylic acid 5-(1-{2-hydroxy-3-[4-(2-oxo-pyrrolidin-1-yl)-piperidin-1-yl]-propyl}-5-methanesulfonyl-4,5,6,7-tetrahydro-1H-pyrazolo[4,3-c]pyridin-3-yl)-2-trifluoromethyl-benzylamide]"
7,250 nM,"CN(C)c1ccc2c(n1)n(C1CCN(CC(O)Cn3nc(-c4ccc(C(F)(F)F)c(CNC(=O)CO)c4)c4c3CCN(S(C)(=O)=O)C4)CC1)c(=O)n2C (centres unmarked) [Example 152, 2-Hydroxy-N-[5-(1-{3-[4-(5-Dimethylamino-1-methyl-2-oxo-1,2-dihydro-imidazo[4,5-b]pyridin-3-yl)-piperidin-1-yl]-2-hydroxy-propyl}-5-methanesulfonyl-4,5,6,7-tetrahydro-1H-pyrazolo[4,3-c]pyridin-3-yl)-2-trifluoromethyl-benzyl]-acetamide]"
8,380 nM,"CS(=O)(=O)N1CCc2c(c(-c3ccc(C(F)(F)F)c(CNC(=O)CN4CCS(=O)(=O)CC4)c3)nn2CCCN2CCC(N3CCCC3=O)CC2)C1 [Example 162, 2-(1,1-Dioxo-1λ^6-thiomorpholin-4-yl)-N-[5-(5-methanesulfonyl-1-{3-[4-(2-oxo-pyrrolidin-1-yl)-piperidin-1-yl]-propyl}-4,5,6,7-tetrahydro-1H-pyrazolo[4,3-c]pyridin-3-yl)-2-trifluoromethyl-benzyl]-acetamide]"
9,1320 nM,"CS(=O)(=O)N1CCc2c(c(-c3ccc(C(F)(F)F)c(Cn4cnnn4)c3)nn2CCCN2CCC(N3CCCC3=O)CC2)C1 [Example 176, 1-(1-{3-[5-Methanesulfonyl-3-(3-tetrazol-1-ylmethyl-4-trifluoromethyl-phenyl)-4,5,6,7-tetrahydro-pyrazolo[4,3-c]pyridin-1-yl]-propyl}-piperidin-4-yl)-pyrrolidin-2-one]"
10,1650 nM,"CS(=O)(=O)N1CCc2c(c(-c3ccc(C(F)(F)F)c(CNC=O)c3)nn2CC(O)CN2CCC(N3CCCC3=O)CC2)C1 (centres unmarked) [Example 178, N-[5-(1-{2-Hydroxy-3-[4-(2-oxo-pyrrolidin-1-yl)-piperidin-1-yl]-propyl}-5-methanesulfonyl-4,5,6,7-tetrahydro-1H-pyrazolo[4,3-c]pyridin-3-yl)-2-trifluoromethyl-benzyl]-formamide]"
